From ChEMBL document CHEMBL1201862, “PubChem BioAssay data set” (2004)
Active and inactive are the calls of the source.

Legend:
[1] = target: Glucose-6-phosphate 1-dehydrogenase (Homo sapiens, UniProt P11413); test: human G6PD enzyme inhibitors, dose response, selectivity assay for P. falciparum G6PD inhibitor project, biochemical, fluorescence (AID 504792); type: functional
Cytochrome P450 2C19 = Cytochrome P450 2C19 (Homo sapiens, UniProt P33261); test: Cytochrome panel assay with activity outcomes. Panel member name: p450-cyp2c19 Compounds with AC50 equal or less than 10 uM are considered active; type: functional
Chain of Cytochrome P450 2C19 (P33261 whole entry): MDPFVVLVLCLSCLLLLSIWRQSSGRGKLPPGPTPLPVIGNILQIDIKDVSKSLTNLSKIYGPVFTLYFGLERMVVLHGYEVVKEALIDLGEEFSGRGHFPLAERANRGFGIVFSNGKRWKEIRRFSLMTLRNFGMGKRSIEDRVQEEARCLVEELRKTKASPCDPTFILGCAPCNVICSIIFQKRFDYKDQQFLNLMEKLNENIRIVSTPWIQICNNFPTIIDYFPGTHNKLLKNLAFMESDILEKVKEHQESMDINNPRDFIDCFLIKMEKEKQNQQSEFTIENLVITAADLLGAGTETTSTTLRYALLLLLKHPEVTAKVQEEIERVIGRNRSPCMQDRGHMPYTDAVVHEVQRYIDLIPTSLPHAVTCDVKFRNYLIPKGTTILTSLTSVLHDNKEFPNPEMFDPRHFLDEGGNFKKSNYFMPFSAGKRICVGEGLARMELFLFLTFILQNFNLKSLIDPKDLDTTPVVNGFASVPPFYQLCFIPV

Cytochrome P450 2D6 = Cytochrome P450 2D6 (Homo sapiens, UniProt P10635);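 also: CYP2D6 member of a cytochrome P450 panel assay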
Chain of Cytochrome P450 2D6 (P10635 whole entry): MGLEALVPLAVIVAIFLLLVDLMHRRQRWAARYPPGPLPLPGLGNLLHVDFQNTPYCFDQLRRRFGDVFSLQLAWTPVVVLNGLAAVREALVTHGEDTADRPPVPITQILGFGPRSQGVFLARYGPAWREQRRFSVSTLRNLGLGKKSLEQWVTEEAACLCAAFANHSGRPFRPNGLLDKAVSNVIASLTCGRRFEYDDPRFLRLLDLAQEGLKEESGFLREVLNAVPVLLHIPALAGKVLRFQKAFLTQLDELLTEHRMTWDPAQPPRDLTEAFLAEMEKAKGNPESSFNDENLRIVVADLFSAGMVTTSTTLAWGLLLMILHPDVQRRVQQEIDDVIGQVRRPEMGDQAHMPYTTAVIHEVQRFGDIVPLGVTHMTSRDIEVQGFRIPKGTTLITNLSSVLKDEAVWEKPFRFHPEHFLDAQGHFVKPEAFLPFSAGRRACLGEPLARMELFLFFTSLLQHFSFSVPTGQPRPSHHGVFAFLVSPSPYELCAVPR

Cytochrome P450 3A4 [2] = target: T1, Cytochrome P450 3A4 (Homo sapiens, UniProt P08684);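 also: CYP3A4 tested as one member of a cytochrome P450 panel screen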
T1 sequence (P08684 whole entry): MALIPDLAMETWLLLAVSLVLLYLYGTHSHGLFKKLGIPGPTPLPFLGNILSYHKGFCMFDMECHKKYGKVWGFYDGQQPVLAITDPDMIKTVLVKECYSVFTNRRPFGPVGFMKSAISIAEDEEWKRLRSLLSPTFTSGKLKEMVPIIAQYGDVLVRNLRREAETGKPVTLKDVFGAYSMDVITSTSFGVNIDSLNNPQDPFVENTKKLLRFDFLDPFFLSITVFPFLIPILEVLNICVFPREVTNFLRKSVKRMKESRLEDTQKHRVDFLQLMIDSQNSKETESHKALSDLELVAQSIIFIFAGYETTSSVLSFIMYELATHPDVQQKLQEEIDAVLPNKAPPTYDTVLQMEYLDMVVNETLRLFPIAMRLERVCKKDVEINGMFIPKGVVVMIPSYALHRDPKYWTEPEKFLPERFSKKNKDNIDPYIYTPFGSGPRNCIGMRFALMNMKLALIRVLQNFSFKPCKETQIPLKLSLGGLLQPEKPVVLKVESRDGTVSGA

[3] = target: UDP-galactopyranose mutase (Mycobacterium tuberculosis, UniProt P9WIQ1); test: Inhibitors of Mycobacterium tuberculosis UDP-galactopyranose mutase (UGM) enzyme Measured in Biochemical System Using Plate Reader - 2105-02_Inhibitor_Dose_CherryPick_Activity. [Related pubchem assays (depositor defined):AID504439]
Chain of UDP-galactopyranose mutase (P9WIQ1 whole entry): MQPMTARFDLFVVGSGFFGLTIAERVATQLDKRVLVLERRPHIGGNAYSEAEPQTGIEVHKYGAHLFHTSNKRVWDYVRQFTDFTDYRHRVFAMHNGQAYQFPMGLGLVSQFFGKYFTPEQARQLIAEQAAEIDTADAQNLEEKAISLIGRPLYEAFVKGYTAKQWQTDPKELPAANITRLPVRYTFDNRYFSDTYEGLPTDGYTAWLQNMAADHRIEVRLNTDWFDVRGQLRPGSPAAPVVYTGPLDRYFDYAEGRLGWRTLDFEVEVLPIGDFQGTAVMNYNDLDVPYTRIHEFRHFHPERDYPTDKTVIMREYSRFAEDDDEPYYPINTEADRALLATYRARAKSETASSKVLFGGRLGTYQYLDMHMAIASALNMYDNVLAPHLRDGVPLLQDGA

Beta-lactamase [4] = target: Beta-lactamase (Salmonella choleraesuis (strain SC-B67), UniProt Q5J463)
Chain of Beta-lactamase (Salmonella choleraesuis (strain SC-B67), UniProt Q5J463) (Q5J463 whole entry): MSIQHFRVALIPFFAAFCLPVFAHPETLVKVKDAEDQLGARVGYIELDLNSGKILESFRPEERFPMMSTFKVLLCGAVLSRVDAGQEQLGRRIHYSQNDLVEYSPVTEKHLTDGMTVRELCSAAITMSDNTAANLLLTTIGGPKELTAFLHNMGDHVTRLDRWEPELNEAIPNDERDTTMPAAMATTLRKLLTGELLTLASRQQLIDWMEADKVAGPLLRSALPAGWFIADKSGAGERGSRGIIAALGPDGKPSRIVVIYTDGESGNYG

Beta-lactamase [5] = target: Beta-lactamase (Pseudomonas aeruginosa, UniProt Q79MP6);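 also: biochemical dose-response test of metallo-beta-lactamase enzyme inhibition, read out by epi-absorbance; purified recombinant IMP-1 metallo-beta-lactamase with nitrocefin as substrate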
HeLa [6] = test: HeLa cell cytotoxicity, dose response, cytotoxicity control, 24 h, cherry-picked samples (AID 504726); type: functional, cell-based; conditions: Homo sapiens;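 also: potency for cytotoxicity as loss of luminescence signal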
ORF 73 = ORF 73 (Human herpesvirus 8, UniProt O40947); test: inhibitors of C-LANA binding to LBS DNA, dose response, biochemical, fluorescence polarization, cherry-picked samples (AID 504725); set-up: species or system Human gammaherpesvirus 8;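 also: fluorescence polarization of a labeled DNA duplex reporting LANA DNA binding; potency is for inhibitors that block LANA binding to the DNA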
Chain of ORF 73 (O40947 whole entry): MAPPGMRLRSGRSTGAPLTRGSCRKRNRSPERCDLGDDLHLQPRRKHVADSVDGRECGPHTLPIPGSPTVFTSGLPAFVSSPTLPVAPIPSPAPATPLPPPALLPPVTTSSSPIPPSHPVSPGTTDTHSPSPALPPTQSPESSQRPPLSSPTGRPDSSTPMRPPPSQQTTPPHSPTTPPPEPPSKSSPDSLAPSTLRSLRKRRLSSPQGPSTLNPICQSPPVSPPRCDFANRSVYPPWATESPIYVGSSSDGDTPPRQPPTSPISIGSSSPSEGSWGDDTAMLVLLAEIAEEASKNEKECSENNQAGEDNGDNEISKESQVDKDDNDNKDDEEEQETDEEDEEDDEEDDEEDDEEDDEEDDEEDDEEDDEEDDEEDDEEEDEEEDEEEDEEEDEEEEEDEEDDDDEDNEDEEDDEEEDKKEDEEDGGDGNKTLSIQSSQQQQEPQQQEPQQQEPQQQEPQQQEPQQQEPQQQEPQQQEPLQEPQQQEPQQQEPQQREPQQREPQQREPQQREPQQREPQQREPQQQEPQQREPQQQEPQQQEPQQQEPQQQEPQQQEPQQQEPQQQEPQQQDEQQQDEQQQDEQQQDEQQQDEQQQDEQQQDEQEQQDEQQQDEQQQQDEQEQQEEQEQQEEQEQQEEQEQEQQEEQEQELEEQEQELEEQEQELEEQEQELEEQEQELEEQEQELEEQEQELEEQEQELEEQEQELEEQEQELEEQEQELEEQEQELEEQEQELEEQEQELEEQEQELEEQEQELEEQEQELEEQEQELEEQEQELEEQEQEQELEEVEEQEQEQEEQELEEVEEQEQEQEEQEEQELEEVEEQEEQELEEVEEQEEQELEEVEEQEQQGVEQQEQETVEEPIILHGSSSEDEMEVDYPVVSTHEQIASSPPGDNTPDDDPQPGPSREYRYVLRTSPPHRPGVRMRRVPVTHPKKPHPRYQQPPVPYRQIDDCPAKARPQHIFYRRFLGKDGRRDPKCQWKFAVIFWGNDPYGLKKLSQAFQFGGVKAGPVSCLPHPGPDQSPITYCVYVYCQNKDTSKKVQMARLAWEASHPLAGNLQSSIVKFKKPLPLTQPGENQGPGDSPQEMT

Escherichia coli = test: microbe, parasite or virus in culture
Cytochrome P450 1A2 = target: T2, Cytochrome P450 1A2 (Homo sapiens, UniProt P05177);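 also: PubChem cytochrome P450 panel assay, CYP1A2 panel member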
T2 sequence (P05177 whole entry): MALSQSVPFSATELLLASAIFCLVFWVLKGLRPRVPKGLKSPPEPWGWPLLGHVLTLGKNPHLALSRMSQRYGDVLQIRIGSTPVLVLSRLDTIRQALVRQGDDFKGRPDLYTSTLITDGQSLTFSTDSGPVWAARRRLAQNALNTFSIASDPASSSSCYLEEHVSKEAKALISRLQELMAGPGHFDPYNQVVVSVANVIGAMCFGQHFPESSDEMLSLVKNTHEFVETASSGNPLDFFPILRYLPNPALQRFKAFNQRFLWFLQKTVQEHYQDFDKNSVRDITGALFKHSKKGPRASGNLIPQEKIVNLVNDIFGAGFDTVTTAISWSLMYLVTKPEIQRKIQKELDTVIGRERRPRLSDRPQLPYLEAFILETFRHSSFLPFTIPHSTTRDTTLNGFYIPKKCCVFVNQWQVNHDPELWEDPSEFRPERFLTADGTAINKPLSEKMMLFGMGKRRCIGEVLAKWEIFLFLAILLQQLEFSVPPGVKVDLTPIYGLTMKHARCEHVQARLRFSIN

Cytochrome P450 3A4 [7] = target: T1, Cytochrome P450 3A4; remark: listed apart in the source
Estrogen receptor beta = Estrogen receptor beta (Homo sapiens, UniProt Q92731); test: ERβ–SRC-3 coactivator interaction inhibitors, confirmation, orthogonal assay, biochemical, ELISA, streptavidin-HRP readout (AID 1060)
Chain of Estrogen receptor beta (Q92731 whole entry): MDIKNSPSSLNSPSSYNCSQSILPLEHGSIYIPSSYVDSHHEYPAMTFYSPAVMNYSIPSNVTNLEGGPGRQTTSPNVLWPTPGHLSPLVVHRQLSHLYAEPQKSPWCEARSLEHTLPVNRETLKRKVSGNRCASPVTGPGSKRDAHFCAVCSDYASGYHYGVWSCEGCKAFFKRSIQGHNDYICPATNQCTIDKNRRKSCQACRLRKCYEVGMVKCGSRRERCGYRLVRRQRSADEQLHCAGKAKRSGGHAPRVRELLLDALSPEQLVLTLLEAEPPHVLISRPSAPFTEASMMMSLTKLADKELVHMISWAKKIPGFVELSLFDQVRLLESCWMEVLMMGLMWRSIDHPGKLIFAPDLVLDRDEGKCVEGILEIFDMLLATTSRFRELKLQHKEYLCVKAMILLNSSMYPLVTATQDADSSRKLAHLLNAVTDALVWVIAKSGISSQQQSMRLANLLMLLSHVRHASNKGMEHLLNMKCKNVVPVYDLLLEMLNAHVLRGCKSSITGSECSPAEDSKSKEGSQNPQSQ

[8] = target: DNA dC->dU-editing enzyme APOBEC-3G (Homo sapiens, UniProt Q9HC16); type: functional;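 also: Dose-response counterscreen measuring inhibition of APOBEC3G DNA deaminase activity, run while confirming APOBEC3A inhibitors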
Chain of DNA dC->dU-editing enzyme APOBEC-3G (Q9HC16 whole entry): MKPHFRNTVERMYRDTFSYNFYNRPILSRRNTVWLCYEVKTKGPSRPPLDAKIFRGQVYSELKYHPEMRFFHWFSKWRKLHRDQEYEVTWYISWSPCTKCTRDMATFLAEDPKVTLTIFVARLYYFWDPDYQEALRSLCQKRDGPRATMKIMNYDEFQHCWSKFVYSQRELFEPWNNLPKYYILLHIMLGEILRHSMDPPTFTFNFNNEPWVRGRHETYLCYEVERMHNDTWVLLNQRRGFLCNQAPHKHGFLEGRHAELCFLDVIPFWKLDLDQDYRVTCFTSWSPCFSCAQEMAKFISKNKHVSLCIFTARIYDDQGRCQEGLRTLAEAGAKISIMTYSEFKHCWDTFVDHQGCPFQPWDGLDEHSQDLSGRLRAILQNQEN

[9] = target: DNA dC->dU-editing enzyme APOBEC-3A (Homo sapiens, UniProt P31941); test: Dose Response confirmation of small molecule APOBEC3A DNA Deaminase Inhibitors via a fluorescence-based single-stranded DNA deaminase assay. [Related pubchem assays (depositor defined):AID493011, AID493024]; type: functional
Chain of DNA dC->dU-editing enzyme APOBEC-3A (P31941 whole entry): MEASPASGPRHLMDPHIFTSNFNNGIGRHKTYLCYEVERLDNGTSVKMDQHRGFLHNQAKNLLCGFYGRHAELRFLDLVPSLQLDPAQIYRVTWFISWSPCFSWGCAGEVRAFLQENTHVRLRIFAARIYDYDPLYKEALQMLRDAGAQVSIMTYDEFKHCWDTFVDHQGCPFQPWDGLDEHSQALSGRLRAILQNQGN

[10] = target: Induced myeloid leukemia cell differentiation protein Mcl-1 (Homo sapiens, UniProt Q07820); type: functional
[11] = target: T3, Carboxy-terminal domain RNA polymerase II polypeptide A small phosphatase 1 (Homo sapiens, UniProt Q9GZU7); test: inhibitors of CTDSP1, concentration-response testing, biochemical assay, absorbance-based, actives from ultra-high-throughput screening (AID 540297); type: functional
T3 sequence (Q9GZU7 whole entry): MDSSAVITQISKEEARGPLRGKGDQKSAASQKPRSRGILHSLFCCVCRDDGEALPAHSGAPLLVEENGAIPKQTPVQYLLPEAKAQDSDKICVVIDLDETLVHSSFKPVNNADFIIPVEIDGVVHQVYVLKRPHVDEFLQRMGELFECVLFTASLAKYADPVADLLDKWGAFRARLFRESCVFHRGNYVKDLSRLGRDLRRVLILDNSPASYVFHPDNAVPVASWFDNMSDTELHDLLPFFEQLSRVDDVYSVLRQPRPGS

Estrogen receptor = target: T4, Estrogen receptor (Homo sapiens, UniProt P03372);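 also: potency for inhibiting coactivator peptide recruitment to the receptor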
T4 sequence (P03372 whole entry): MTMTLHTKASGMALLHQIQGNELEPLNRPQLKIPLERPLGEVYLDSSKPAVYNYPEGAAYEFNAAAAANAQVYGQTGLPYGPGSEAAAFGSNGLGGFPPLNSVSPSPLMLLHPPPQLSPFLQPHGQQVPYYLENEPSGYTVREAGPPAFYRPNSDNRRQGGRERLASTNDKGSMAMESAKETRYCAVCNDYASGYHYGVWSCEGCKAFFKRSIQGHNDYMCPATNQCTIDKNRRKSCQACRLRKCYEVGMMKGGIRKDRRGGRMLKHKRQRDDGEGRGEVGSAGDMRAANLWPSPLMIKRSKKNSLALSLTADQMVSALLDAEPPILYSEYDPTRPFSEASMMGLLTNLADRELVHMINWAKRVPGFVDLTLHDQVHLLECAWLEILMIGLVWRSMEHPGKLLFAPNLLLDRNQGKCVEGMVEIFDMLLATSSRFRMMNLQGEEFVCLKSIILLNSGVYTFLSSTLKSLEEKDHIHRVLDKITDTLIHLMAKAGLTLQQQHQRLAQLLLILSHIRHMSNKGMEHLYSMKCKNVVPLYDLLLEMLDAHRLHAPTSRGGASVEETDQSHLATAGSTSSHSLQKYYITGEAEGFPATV

[12] = target: T5, Mannose-6-phosphate isomerase (Homo sapiens, UniProt P34949); test: human PMI inhibitors, high substrate, primary screen, biochemical, fluorescence intensity, high mannose 6-phosphate (AID 1220)
T5 sequence (P34949 whole entry): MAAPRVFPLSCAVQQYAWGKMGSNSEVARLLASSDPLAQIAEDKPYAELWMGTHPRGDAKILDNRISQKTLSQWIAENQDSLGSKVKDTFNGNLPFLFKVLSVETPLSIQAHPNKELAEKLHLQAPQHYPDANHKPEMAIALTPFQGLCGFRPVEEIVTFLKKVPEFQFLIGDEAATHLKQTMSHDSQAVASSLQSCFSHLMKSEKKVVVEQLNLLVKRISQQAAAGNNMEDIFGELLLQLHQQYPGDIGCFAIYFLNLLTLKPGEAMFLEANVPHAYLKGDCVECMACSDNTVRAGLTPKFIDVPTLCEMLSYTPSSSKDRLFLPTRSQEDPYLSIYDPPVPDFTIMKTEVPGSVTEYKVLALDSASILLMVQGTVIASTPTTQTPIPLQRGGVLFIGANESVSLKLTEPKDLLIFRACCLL

[13] = target: T6, Type-1 angiotensin II receptor (Homo sapiens, UniProt P30556); test: AT1 receptor agonists, dose response, selectivity assay for APJ receptor agonist project, cell-based, uHTS hits (AID 488865); type: functional;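 also: beta-arrestin recruitment to AT1 measured by enzyme fragment complementation luminescence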
T6 sequence (P30556 whole entry): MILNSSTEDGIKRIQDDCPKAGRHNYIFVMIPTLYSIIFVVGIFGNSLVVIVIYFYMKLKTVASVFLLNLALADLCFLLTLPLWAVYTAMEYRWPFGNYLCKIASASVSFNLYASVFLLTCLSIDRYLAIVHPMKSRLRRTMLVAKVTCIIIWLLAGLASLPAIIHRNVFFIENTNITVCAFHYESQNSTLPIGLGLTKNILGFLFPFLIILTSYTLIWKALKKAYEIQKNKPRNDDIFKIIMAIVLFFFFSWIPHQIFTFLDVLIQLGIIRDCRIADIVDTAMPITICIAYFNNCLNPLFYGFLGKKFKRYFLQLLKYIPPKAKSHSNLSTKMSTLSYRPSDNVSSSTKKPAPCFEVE

[14] = target: T5, Mannose-6-phosphate isomerase; test: PMI enzyme inhibitors, confirmation, biochemical, fluorescence intensity (AID 1535)
A-375 [15] = test: A375 melanoma cell viability reduction, dose response, counter-screen for MITF modulator project, cherry-pick samples, set 2 (AID 540335); type: functional, cell-based; conditions: Homo sapiens
A-375 [16] = test: MITF: Counter assay: A375 proliferation Measured in Cell-Based System Using Plate Reader - 2084-03_Inhibitor_Dose_DryPowder_Activity. [Related pubchem assays (depositor defined):AID488944]; type: functional; conditions: Homo sapiens
[17] = P. falciparum late gametocyte killing, dose response, luminescence (AID 1117278); type: functional, cell-based;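 also: gametocytes exposed to compound for 24 hours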
[18] = target: T7, Corticotropin-releasing factor receptor 2/Corticotropin-releasing factor-binding protein (Homo sapiens, UniProt P24387+Q13324); test: activators of CRF receptor 2 with binding protein – uHTS hits, confirmation (AID 602473); type: functional; conditions: read-out: EC50_Mean
T7 sequence (Q13324 whole entry): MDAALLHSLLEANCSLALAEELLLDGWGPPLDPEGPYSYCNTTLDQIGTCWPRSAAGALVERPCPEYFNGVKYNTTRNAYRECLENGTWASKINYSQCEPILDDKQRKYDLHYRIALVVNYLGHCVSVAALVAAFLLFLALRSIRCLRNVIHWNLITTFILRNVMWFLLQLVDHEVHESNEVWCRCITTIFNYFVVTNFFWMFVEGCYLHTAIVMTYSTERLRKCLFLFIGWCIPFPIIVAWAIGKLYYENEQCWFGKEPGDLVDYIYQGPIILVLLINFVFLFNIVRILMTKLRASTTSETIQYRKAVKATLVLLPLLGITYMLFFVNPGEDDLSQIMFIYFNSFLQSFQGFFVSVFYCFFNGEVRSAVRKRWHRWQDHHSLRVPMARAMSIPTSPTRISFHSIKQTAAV
T7 sequence (P24387 whole entry): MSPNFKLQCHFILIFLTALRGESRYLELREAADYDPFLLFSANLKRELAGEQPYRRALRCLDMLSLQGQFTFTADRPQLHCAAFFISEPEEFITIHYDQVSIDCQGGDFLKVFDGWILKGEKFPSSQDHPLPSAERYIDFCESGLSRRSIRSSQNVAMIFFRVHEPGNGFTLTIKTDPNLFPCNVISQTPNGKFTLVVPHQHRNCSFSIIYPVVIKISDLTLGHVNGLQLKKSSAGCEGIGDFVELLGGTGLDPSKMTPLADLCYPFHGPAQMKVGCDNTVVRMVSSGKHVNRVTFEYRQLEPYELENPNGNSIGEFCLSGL

[19] = Jurkat T cell cytotoxicity, dose response, cytotoxicity control for P. falciparum gametocyte viability project, luminescence (AID 1117277); type: functional, cell-based;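 also: potency reflects loss of cellular ATP meaning fewer viable cells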
HeLa [20] = test: HeLa cell cytotoxicity, dose response, cytotoxicity control for MITF activator project, CellTiter-Glo luminescence, cherry-pick samples (AID 540259); type: functional, cell-based; conditions: Homo sapiens

Chain of Glucose-6-phosphate 1-dehydrogenase (P11413 whole entry): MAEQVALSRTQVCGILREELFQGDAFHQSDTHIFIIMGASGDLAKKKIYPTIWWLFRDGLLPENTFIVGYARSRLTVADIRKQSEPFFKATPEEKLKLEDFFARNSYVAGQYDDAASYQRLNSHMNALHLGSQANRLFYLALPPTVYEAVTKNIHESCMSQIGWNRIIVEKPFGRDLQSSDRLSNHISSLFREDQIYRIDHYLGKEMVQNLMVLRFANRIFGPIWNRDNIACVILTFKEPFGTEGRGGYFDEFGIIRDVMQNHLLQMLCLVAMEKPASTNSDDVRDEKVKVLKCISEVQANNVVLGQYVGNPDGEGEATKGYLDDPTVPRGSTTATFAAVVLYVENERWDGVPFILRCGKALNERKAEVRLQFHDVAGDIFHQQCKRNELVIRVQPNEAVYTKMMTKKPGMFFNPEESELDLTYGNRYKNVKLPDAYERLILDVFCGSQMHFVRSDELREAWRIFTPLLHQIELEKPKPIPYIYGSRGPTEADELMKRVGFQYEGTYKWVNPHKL

## Cc1ccc(-c2nn(C)c(=O)c3ccccc23)cc1CNC(=O)/C=C/c1ccccc1
[1]
  IC50: 49.5 µM (inactive)

## C=C(C)CNCC(=C)C.Oc1c(Cl)c(Cl)c(Cl)c(Cl)c1Cl
Cytochrome P450 2C19
  AC50: inconclusive
Cytochrome P450 2D6
  AC50: inactive
Cytochrome P450 3A4 [2]
  AC50: inactive

## Cc1nn(C)c(C)c1N1C(=O)c2cccc3c(N)ccc(c23)C1=O
[3]
  AC50: 1.39 µM (active)
Beta-lactamase [4]
  IC50: 5.25 µM (active)
Beta-lactamase [5]
  IC50: 9.3 µM (active)
HeLa [6]
  AC50: 264 µM (active)
ORF 73
  AC50: 0.81 µM (active)

## COc1c2ccoc2nc2c(OC)c(OC[C@@H](O)C(C)(C)O)ccc12
Escherichia coli
  AC50: 54.2 µM (active)

## O=C(Cc1ccc(S(=O)(=O)N2CCOCC2)s1)Nc1nc2c(s1)CCCC2
Cytochrome P450 1A2
  AC50: 28.2 µM (inconclusive)
Cytochrome P450 3A4 [7]
  AC50: 14.1 µM (inconclusive)
Estrogen receptor beta
  IC50: 5.27 µM (not active)
[8]
  IC50: 33.7 µM (active)
[9]
  IC50: 10.5 µM (active)
[10]
  IC50: 4.44 µM (active)
[11]
  IC50: 3.2 µM (active)
Estrogen receptor
  IC50: 4.69 µM (active)

## C=CCSc1nc2sc3c(c2c(=O)n1CC)CCc1ccccc1-3
[12]
  IC50: 13.5 µM (active)
[1]
  IC50: > 80 µM (inactive)

## CC(=O)O.CN1CCN(CN2C(=O)C3C4C=CC(C3C2=O)C2C3C(=O)N(CN5CCN(C)CC5)C(=O)C3C42)CC1 (configuration not stated)
Cytochrome P450 2D6
  AC50: inconclusive

## COc1ccccc1-n1c(O)cc(=O)nc1SC
[13]
  EC50: > 100 µM (inactive)

## CCOC(=O)c1nnc(/N=c2\ssnc2Cl)o1
[14]
  IC50: 32.5 µM (active)

## Cc1ccc(NC(=O)Nc2ccccc2)nc1
A-375 [15]
  AC50: > 35 µM (active)
A-375 [16]
  AC50: > 35 µM (active)

## O=C(NCc1ccc(OC(F)(F)F)cc1)c1cccc2c1C(=O)c1ccc(N3CCCCC3)cc1S2(=O)=O
[3]
  AC50: 7.54 µM (active)
[17]
  IC50: > 109 µM (inactive)
[18]
  EC50: 6.58 µM (active)
[19]
  IC50: > 83.3 µM (inactive)

## COc1ccccc1N1CCN(/N=C/c2cccc(Cl)c2)CC1
A-375 [15]
  AC50: > 35 µM (active)
HeLa [20]
  AC50: 161 µM (active)
A-375 [16]
  AC50: > 35 µM (active)
